Key:
[1] = molecular target: Platelet-derived growth factor receptor beta (Mus musculus, UniProt P05622); experiment: Inhibitory activity against mouse PDGF beta receptor tyrosine kinase
[2] = molecular target: Fibroblast growth factor receptor 1 (Homo sapiens, UniProt P11362); experiment: Inhibitory activity against fibroblast growth factor receptor 1
HCT-8 = experiment: Inhibitory activity against HCT-8 human colon adenocarcinoma cells was determined.; type: functional, cell-based
SW-620 = experiment: Inhibitory activity against SW-620 human colon adenocarcinoma cells was determined.; type: functional, cell-based
HT-29 = experiment: Inhibitory activity against HT-29 human colon adenocarcinoma cells was determined.; type: functional, cell-based
[3] = molecular target: Proto-oncogene tyrosine-protein kinase Src (Gallus gallus) (UniProt P00523); experiment: Inhibitory activity against avian c-Src tyrosine kinase was determined.

Chain of Platelet-derived growth factor receptor beta (P05622 whole entry): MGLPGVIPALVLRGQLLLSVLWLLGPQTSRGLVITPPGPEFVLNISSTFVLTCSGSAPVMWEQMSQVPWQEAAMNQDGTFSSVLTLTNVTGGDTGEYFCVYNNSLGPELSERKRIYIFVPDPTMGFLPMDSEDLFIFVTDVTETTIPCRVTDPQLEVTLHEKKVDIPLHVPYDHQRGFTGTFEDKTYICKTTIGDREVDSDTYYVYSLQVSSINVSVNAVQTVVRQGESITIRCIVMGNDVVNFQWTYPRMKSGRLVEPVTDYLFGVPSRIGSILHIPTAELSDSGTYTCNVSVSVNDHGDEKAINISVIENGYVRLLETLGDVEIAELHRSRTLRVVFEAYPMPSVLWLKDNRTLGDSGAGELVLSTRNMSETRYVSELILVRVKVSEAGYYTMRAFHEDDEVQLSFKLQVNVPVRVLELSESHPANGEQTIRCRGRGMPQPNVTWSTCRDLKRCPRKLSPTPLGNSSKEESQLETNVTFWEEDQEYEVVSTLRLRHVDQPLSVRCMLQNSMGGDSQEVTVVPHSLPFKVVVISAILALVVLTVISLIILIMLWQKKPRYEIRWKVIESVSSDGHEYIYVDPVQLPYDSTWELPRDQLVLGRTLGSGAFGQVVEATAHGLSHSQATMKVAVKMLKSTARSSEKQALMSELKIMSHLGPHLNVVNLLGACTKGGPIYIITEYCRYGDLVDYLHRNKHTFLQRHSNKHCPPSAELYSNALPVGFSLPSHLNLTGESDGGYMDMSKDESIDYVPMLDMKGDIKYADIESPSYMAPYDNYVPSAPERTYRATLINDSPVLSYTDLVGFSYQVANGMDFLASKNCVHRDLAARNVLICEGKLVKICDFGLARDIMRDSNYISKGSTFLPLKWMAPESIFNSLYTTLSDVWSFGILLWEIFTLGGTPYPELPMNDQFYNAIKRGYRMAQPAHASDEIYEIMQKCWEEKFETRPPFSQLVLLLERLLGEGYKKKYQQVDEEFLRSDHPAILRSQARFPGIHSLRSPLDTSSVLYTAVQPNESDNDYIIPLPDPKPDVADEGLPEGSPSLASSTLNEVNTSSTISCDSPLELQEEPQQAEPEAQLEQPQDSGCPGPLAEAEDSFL
Chain of Fibroblast growth factor receptor 1 (P11362 whole entry): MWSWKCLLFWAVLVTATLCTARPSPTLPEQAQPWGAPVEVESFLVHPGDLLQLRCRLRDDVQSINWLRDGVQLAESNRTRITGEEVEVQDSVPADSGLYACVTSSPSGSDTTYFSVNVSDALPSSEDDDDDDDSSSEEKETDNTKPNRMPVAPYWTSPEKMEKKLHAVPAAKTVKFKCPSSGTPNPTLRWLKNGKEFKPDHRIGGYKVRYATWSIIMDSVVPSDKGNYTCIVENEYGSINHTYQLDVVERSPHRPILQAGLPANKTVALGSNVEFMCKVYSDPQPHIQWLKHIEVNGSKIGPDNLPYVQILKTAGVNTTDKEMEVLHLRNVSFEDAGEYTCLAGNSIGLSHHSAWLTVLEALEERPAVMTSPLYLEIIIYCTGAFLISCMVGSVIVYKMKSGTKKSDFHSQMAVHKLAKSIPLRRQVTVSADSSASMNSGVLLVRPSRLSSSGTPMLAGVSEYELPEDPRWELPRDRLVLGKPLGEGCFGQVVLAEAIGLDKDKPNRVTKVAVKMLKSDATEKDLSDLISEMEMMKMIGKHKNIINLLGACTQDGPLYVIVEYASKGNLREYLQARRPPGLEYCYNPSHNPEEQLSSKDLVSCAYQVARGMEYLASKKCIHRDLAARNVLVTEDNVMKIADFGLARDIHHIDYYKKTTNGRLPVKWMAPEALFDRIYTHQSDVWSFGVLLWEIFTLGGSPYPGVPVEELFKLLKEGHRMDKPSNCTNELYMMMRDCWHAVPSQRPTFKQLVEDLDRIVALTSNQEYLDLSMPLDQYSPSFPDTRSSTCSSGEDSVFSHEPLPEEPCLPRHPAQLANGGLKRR

Row | Compound | IC50 [1] | IC50 [2] | IC50 (HCT-8) | IC50 (SW-620) | IC50 (HT-29) | IC50 [3]
1 | CCN(CC)CCCNc1ccc2cc(-c3c(Cl)cccc3Cl)c(=O)n(C)c2n1 | > 50000 nM | > 50000 nM |  |  |  | 
2 | CN1CCN(CCCCCNc2cc3c(cn2)cc(-c2c(Cl)cccc2Cl)c(=O)n3C)CC1 | 9900 nM |  |  |  |  | 
3 | CNc1ncc2cc(-c3c(Cl)cccc3Cl)c(=O)n(C)c2n1 |  |  | 7800 nM | 5000 nM | 4100 nM | 750 nM
4 | CN1CCN(CCCNc2ncc3cc(-c4c(Cl)cccc4Cl)c(=O)n(C)c3n2)CC1 |  |  | 2500 nM | 7500 nM | 15000 nM | 150 nM
5 | CN1CCN(c2ccc(Nc3cc4c(cn3)cc(-c3c(Cl)cccc3Cl)c(=O)n4C)cc2)CC1 |  |  | 2100 nM | 4300 nM | 830 nM | 
6 | CCN(CC)CCCOc1ccc(Nc2cc3c(cn2)cc(-c2c(Cl)cccc2Cl)c(=O)n3C)cc1 | 360 nM | 250 nM |  |  |  | 
7 | CCN(CC)CCNc1cc2c(cn1)cc(-c1c(Cl)cccc1Cl)c(=O)n2C | > 50000 nM | 33000 nM |  |  |  | 
8 | CCN(CC)CCCNc1cc2c(cn1)cc(-c1c(Cl)cccc1Cl)c(=O)n2C | 4600 nM | 150 nM |  |  |  | 
9 | Cn1c(=O)c(-c2c(Cl)cccc2Cl)cc2cnc(Nc3ccc(N4CCOCC4)cc3)nc21 | 640 nM | 100 nM | 1500 nM | 170 nM | 200 nM | 
10 | CCN(CC)CCOc1ccc(Nc2ncc3cc(-c4c(Cl)cccc4Cl)c(=O)n(C)c3n2)cc1 [PD-0166285] |  |  | 420 nM | 270 nM | 280 nM | 
11 | CN1CCN(CCCNc2cc3nc(O)c(-c4c(Cl)cccc4Cl)cc3cn2)CC1 | 1400 nM | 72 nM |  |  |  | 
12 | CN1CCN(CCOc2ccc(Nc3cc4c(cn3)cc(-c3c(Cl)cccc3Cl)c(=O)n4C)cc2)CC1 | 260 nM |  |  |  |  | 
13 | Cn1c(=O)c(-c2c(Cl)cccc2Cl)cc2cnc(Nc3ccc(N4CCOCC4)cc3)cc21 | 2800 nM | 8700 nM |  |  |  | 
14 | Cn1c(=O)c(-c2c(Cl)cccc2Cl)cc2cnc(Nc3ccccc3)nc21 |  |  |  |  |  | 20 nM
15 | Cn1c(=O)c(-c2c(Cl)cccc2Cl)cc2cnc(Nc3ccncc3)cc21 | 6900 nM | 3500 nM | 7300 nM | 8700 nM | 3700 nM | 
16 | CCN(CC)CCOc1ccc(Nc2ccc3cc(-c4c(Cl)cccc4Cl)c(=O)n(C)c3n2)cc1 | > 50000 nM | > 50000 nM |  |  |  | 
17 | CCN(CC)CCCCCNc1cc2c(cn1)cc(-c1c(Cl)cccc1Cl)c(=O)n2C | 740 nM | 80 nM |  |  |  | 
18 | Cn1c(=O)c(-c2c(Cl)cccc2Cl)cc2cnc(N)nc21 |  |  |  | 2600 nM |  | 
19 | CN1CCN(CCCOc2ccc(Nc3cc4c(cn3)cc(-c3c(Cl)cccc3Cl)c(=O)n4C)cc2)CC1 | 900 nM |  |  |  |  | 
20 | Cn1c(=O)c(-c2c(Cl)cccc2Cl)cc2cnc(Nc3ccncc3)nc21 |  |  | 16000 nM |  | 140 nM | 10 nM
21 | Cn1c(=O)c(-c2c(Cl)cccc2Cl)cc2cnc(NCCCn3ccnc3)cc21 | 3200 nM |  |  |  |  | 
22 | CCN(CC)CCOc1ccc(Nc2cc3c(cn2)cc(-c2c(Cl)cccc2Cl)c(=O)n3C)cc1 | 100 nM |  | 2800 nM | 6700 nM | 750 nM | 

Row | Compound | IC50 [1] | IC50 [2] | IC50 (HCT-8) | IC50 (SW-620) | IC50 (HT-29) | IC50 [3]
23 | CCN(CC)C(=O)c1ccc(Nc2cc3c(cn2)cc(-c2c(Cl)cccc2Cl)c(=O)n3C)cc1 | 16000 nM | 1900 nM |  |  |  | 
24 | Cn1c(=O)c(-c2c(Cl)cccc2Cl)cc2cnc(NCCCN3CCOCC3)cc21 | 5800 nM |  |  |  |  | 
25 | CN1CCN(CCCCCNc2ncc3cc(-c4c(Cl)cccc4Cl)c(=O)n(C)c3n2)CC1 |  |  |  |  |  | 60 nM
26 | CN1CCN(CCCNc2cc3c(cn2)cc(-c2c(Cl)cccc2Cl)c(=O)n3C)CC1 | 2800 nM | 170 nM | 2800 nM | 7600 nM | 2200 nM | 
27 | CN1CCN(CCCNc2ccc3cc(-c4c(Cl)cccc4Cl)c(=O)n(C)c3n2)CC1 | > 50000 nM | > 50000 nM |  |  |  | 
28 | COc1ccc(Nc2cc3c(cn2)cc(-c2c(Cl)cccc2Cl)c(=O)n3C)cc1 | 6800 nM | 2200 nM |  |  |  | 
29 | CCN(CC)CCCCNc1cc2c(cn1)cc(-c1c(Cl)cccc1Cl)c(=O)n2C | 2400 nM | 80 nM |  |  |  | 
30 | CN1CCN(CCCCNc2cc3c(cn2)cc(-c2c(Cl)cccc2Cl)c(=O)n3C)CC1 | 1100 nM |  | 2400 nM | 2600 nM | 1600 nM | 
31 | CN1CCN(CCCCNc2ncc3cc(-c4c(Cl)cccc4Cl)c(=O)n(C)c3n2)CC1 |  |  | > 25000 nM | > 25000 nM |  | 
32 | CN(C)c1cc2c(cn1)cc(-c1c(Cl)cccc1Cl)c(=O)n2C | > 50000 nM | > 50000 nM |  |  |  | 
33 | CCN(CC)CCCOc1ccc(Nc2cc3nc(O)c(-c4c(Cl)cccc4Cl)cc3cn2)cc1 | 790 nM | 440 nM |  |  |  | 
34 | Cn1c(=O)c(-c2c(Cl)cccc2Cl)cc2ccc(Nc3ccccc3)nc21 | > 50000 nM | > 50000 nM |  |  |  | 
35 | CCN(CC)CCNc1ncc2cc(-c3c(Cl)cccc3Cl)c(=O)n(C)c2n1 | > 50000 nM | > 50000 nM |  |  |  | 
36 | CCN(CC)CCCCNc1cc2nc(O)c(-c3c(Cl)cccc3Cl)cc2cn1 | 1100 nM | 170 nM |  |  |  | 
37 | CCN(CC)C(=O)c1ccc(Nc2ncc3cc(-c4c(Cl)cccc4Cl)c(=O)n(C)c3n2)cc1 | 290 nM | 180 nM |  |  |  | 
38 | Cn1c(=O)c(-c2c(Cl)cccc2Cl)cc2ccc(N)nc21 | > 50000 nM | > 50000 nM |  |  |  | 
39 | COc1ccc(Nc2ccc3cc(-c4c(Cl)cccc4Cl)c(=O)n(C)c3n2)cc1 | > 50000 nM | > 50000 nM |  |  |  | 
40 | Cn1c(=O)c(-c2c(Cl)cccc2Cl)cc2cnc(Nc3ccccc3)cc21 | 1400 nM | 2200 nM |  |  |  | 
41 | COc1ccc(Nc2ncc3cc(-c4c(Cl)cccc4Cl)c(=O)n(C)c3n2)cc1 |  |  |  |  |  | 20 nM
42 | CN1CCN(c2ccc(Nc3ncc4cc(-c5c(Cl)cccc5Cl)c(=O)n(C)c4n3)cc2)CC1 |  |  | 240 nM | 120 nM | 240 nM | 
43 | CNc1cc2c(cn1)cc(-c1c(Cl)cccc1Cl)c(=O)n2C | 8000 nM | 210 nM | 1700 nM |  | 2800 nM | 
44 | Cn1c(=O)c(-c2c(Cl)cccc2Cl)cc2cnc(N)cc21 | 3600 nM | 380 nM | 2200 nM |  | 1900 nM | 

From ChEMBL document CHEMBL1133618, “Synthesis and structure-activity relationships of 7-substituted 3-(2, 6-dichlorophenyl)-1,6-naphthyridin-2(1H)-ones as selective inhibitors of pp60(c-src)” (J Med Chem, 2000)
